Series [1] deals with BMP-2. Kind of series: Real time PCR of BMP-2 gene expression in human MSC (Cells-to-Ct). Type of series: cell-based. Particulars: BMP-2 mRNA, hMSC, 5-10 μM, 24 hours, vs untreated. The protocol: Early passage human mesenchymal stem cells (MSC) were thawed from one frozen cryo-vial and seeded into two T-75 tissue culture flasks and incubated at 37° C. for 48 hours in Alpha MEM with 10% FBS. After three days and one re-feeding, the cells were trypsinized and re-suspended in pre-warmed media at 5×10^4 cells/mL to provide 5,000 cells per well in a 96 well plate and incubated overnight at 37° C. in 5% CO2.
Each well was washed in cold PBS, lysed at room temperature for five minutes, and stop reagent added to each well to stop the lysis reaction. The final lysate was kept cold at 4° C. and used immediately as the RNA template for the reverse transcription cDNA synthesis following the TAQMAN GENE EXPRESSION CELLS TO CT KIT instructions.
The cDNA synthesis was prepared on a separate sterile 96-well PCR plate and performed on the Step One Plus Real Time PCR System instrument (Applied Biosystems) with the programming set at 37° C. for 60 minutes and an inactivation hold of 95° C. for five minutes. The final cDNA reaction was kept cold and used as the template for the TAQMAN GENE Real-Time PCR step following the recommended instructions for TAQMAN GENE EXPRESSION CELLS TO CT KIT assay. […] Template cDNA's were added separately to respective individual wells in replicate samples.
The PCR was performed on the STEPONEPLUS Real-Time System instrument (Applied Biosystems). The amplification program consisted of 1 cycle of 95° C. with 10 minute hold (hot start) and followed by 50 cycles of 95° C. with 15-second annealing hold and 1-minute 60° C. specified acquisition hold.

For series [2], the system named is BMP2. Kind of series: Quantitative PCR (TaqMan, ΔΔCt) of BMP2 in human mesenchymal stem cells. Particulars: Homo sapiens, Mesenchymal stem cells, BMP2 mRNA, hMSC, 10 μM, vs untreated, 18S reference, read-out: q-PCR Fold increase. Type of series: cell-based. The protocol: (§1) Human mesenchymal stem cells (LONZA, Catalog PT2501) were maintained in Mesenchymal stem cells basal media (MSCBM CAT#PT-3238). Early passage cells were plated in triplicate at 2×10^4 cells/cm^2 using six well tissue culture plates and grown in humidified 5% CO2 at 37° C. for 24 hours. Spent media was replaced by assay media of drugs to be tested in same media as above at 10 μM final concentration. Untreated cells were used as the control group. Total RNA were prepared using either TRI Reagent (Ambion, Cat. 9738), for subsequent TaqMan gene expression qPCR of BMP2. RNA concentration and integrity was assessed by absorbance 260/280 and electrophoresis in 1% Agarose with formaldehyde loading dye. For TaqMan gene expression, cDNA was synthesized from 2 μg of total RNA using the High Capacity cDNA Reverse Transcription Kit (Applied Biosystems, Cat. 4368814). The resulting cDNA were diluted 1:100 for TaqMan and amplified by real-time quantitative PCR. Gene-specific fluorescent labeled TaqMan primers for FAM-BMP2 (Applied Biosystems, Hs00154192.m1) and TaqMan reference VIC-18S ribosomal RNA (Applied Biosystems, 4310893E) were used to target gene of interest. A cocktail of universal master mix (Applied Biosystems, 4369016) were prepared individually for both set of primers which contained Taq Polymerase, dNTPs, and buffer. Template cDNA's were added separately to respective individual wells in triplicate samples. The PCR were performed on StepOne Plus Real Time System instrument (Applied Biosystems). The amplification program consisted of 1 cycle of 95° C. with 10 minute hold (hot start) followed by 50 cycles of 95° C. with 15 second annealing hold and 1 minute 60° C. specified acquisition hold. The Ct value of endogenous reference gene (i.e. 18 s) was used to control for input RNA and then used to normalize target gene (i.e. BMP2) tested from the same cDNA sample to calculate the Δ Ct, and then calibrated to an internal reference sample. Change in gene expression was determined by the expression ΔΔCt relative method.
18 compounds were confirmed positive by the more stringent qPCR techniques. […] Included in the tables is the target or common medical use for each compounds.

Series [3] concerns BMP-2. Put plainly: Study II real time PCR, BMP-2 up-regulation in mesenchymal stem cells. Type of series: cell-based, human. Particulars: hMSC, 24 hour. The protocol: (§2) The testing procedure follows.
(§3) Cells based assays are done using 6 wells tissue culture plates, seeded with human mesenchymal stem cells (MSC) from Lonza, culture at 80% density. After seeding cells are treated with selected compounds at 10 μM, 5 μM and 2.5 μM for a 24 hour period, mRNA is collected using Qiagen kit RNAeasy kit and cDNA is prepared with same Qiagen kit, RT-PCR is done using kit from SABiosciences to measure gene expression for BMP2, 4 and 7 and run in Applied Biosystems Step One Plus. The protocol for mRNA isolation is described below.
(§4) Human mesenchymal stem cell growth medium passage 3 plated in a 6 well plate at 2.5×10^5 cells/well in hMSC Basal Medium+BulletKit (50 ml Growth Supplement, 10 ml L-Glutamine and 0.5 ml Gentamicin Sulfate Amphotericin-B) for 24 hrs. The compounds to be tested were added and after 24 hrs the media was aspirated, rinsed well once with PBS, and aspirated again. 350 ul of Lysis Buffer was added and the cells were stored at −20° C.
(§5) The lysate was homogenized by pipetting the lysate directly into a QIA shredder spin column placed in a 2-mL collection tube, and centrifuge for 2 min at full speed. 70% ethanol was added (1 vol. or […]) to the homogenized lysate (now at the bottom of the collection tube), and mixed well by pipetting. Up to 700 μL of the sample was transferred, including any precipitate that may have formed, to an RNeasy spin column placed in a 2-mL collection tube. This was centrifuged for 15 seconds at full speed. 700 μL of Buffer RW1 was added to the RNeasy spin column. This was centrifuged for 15 seconds at full speed to wash the spin column membrane.
(§6) 500 μL of Buffer RPE was added to the RNeasy spin column and centrifuged for 15 seconds at full speed. The flow through was discarded. 500 μL of Buffer RPE was added to the RNeasy spin column and centrifuged for 2 minutes at full speed to wash the spin column membrane. The RNeasy spin column was removed from the collection tube and the flow-through was discarded.
(§7) The RNeasy spin column was placed in a new 2-mL collection tube and centrifuged for 1 minute at full speed. The RNeasy spin column was removed from the collection tube, and the flow-through was discarded. The RNeasy spin column was placed in a new 1.5-mL collection tube. 30-50 μL of RNase-free water was added directly to the spin column membrane and this was centrifuged for 1 minute at full speed to elute the RNA.

Series [4] concerns BMP-4. Put plainly: Study II real time PCR, BMP-4 up-regulation in mesenchymal stem cells. Type of series: cell-based, human. The following applies: hMSC, 24 hour, 2.5, 5 and 10 μM tested. The protocol: as §2, §3, §4, §5, §6
The RNeasy spin column was placed in a new 2-mL collection tube and centrifuged for 1 minute at full speed. […]

The subject of series [5] is BMP-7. Put plainly: Study II real time PCR, BMP-7 up-regulation in mesenchymal stem cells. Type of series: cell-based, human. The following applies: hMSC. The protocol: as §2, §3, §4, §5, §6, §7
The subject of series [6] is human mesenchymal stem cells (MSC). Type of series: cell-based. The following applies: hMSC, 24 hrs. Further details: key: *: Dose caused cell death.
Series [7] relates to BMP-2. Kind of series: BMP-2 fold change of JHU library compounds, confirmed by qPCR. Particulars: JHU library compounds; non-treated = 1.00. Type of series: cell-based, human.
Text: To further verify the technique, a 2T3 mouse pre-osteoblast cell line derived from calvaria courtesy of Dr. Steve Harris, UTHSCSA, was utilized to visually screen the compounds of the BIOMOL library and JHU libraries, purchased from John Hopkins University including 2387 compounds (solution in wells). Specifically, Murine 2T3 were thawed from one frozen cryovial and re-seeded into two T-75 tissue culture flasks grown in Alpha MEM with 10% FBS, Glutamine, and Pen/Strip antibiotics. Cells were incubated in a humidified 37° C. under 5% CO2 for 48 hours or when cells reached 80% confluence. After reaching confluency, the 2T3 were trypsinized and resuspended in pre-warm growth media to a cell density of 5×10^4 cells/mL. Approximately 100 uL of cell suspension was seeded to a 96 well plate to give a final 5,000 cells per well. Plate was incubated overnight at 37° C. and spent media was aspirated and replace with 100 uL of growth media with 5-10 uM of presumptive drug compounds. A set of controls were untreated and treated with 10 uM of Lovastatin to be used as a visual reference morphological screening.
as §1, with “Total RNA were prepared using either TRI Reagent (Ambion, Cat. 9738), for subsequent TaqMan gene expression qPCR of BMP2.” left out, “Gene-specific fluorescent labeled TaqMan primers for FAM-BMP2 (Applied Biosystems, Hs00154192.m1) and TaqMan reference VIC-18S ribosomal RNA (Applied Biosystems, 4310893E) were used to target gene of interest.” left out, “The Ct value of endogenous reference gene (i.e. 18 s) was used to control for input RNA and then used to normalize target gene (i.e. BMP2) tested from the same cDNA sample to calculate the Δ Ct, and then calibrated to an internal reference sample.” left out
Included in the tables is the target or common medical use for each compounds.

Where [8] appears, read: positive control compounds (Table 1).

Where a name gives a salt, the structure may show the parent alone. Read-outs that look alike come from different tables or passages of the source.

In the case of `COc1ccc(CCN2CCC(Nc3nc4ccccc4n3Cc3ccc(F)cc3)CC2)cc1` [Astemizole], the “RT PCR Fold increase” value in series [1] (BIOMOL library (Table 2)) was found to be 156.2 fold. Further, the fold induction at 10 µM in series [2] (BIOMOL library (Table 2)) amounted to 1. The “BMP-2 Fold Increase/Dose” value was approximately 30 fold in series [3] (5 μM) and approximately 7 fold in series [3] (10 μM). Also, the “BMP-2 fold increases (in words)” value in series [3] is given as “exhibit BMP-2 fold increases”. Besides, in series [4], the “BMP-4 Fold Increase/Dose” value is recorded as “None”. For the same compound, the “BMP-7 Fold Increase/Dose” value in series [5] (2.5 μM, 24 hour) is ~8/2.5 fold. Further, in series [5] (24 hour), the “BMP-7 fold increases (in words)” value is reported as “exhibit BMP-7 fold increases”.

Take `CC(C)(C)c1ccc(C(=O)CCCN2CCC(OC(c3ccccc3)c3ccccc3)CC2)cc1` [Ebastine]: the “BMP-2 Fold Increase/Dose” value in series [3] (10 μM) is ~8/10 μM fold. In series [3], the “BMP-2 fold increases (in words)” value is given as “exhibit BMP-2 fold increases”. The “BMP-4 Fold Increase/Dose” value in series [4] is on record as “None”. For the same compound, in series [5] (10 μM, 24 hour), the “BMP-7 Fold Increase/Dose” value is listed as ~3/10 fold. In addition, the “BMP-7 fold increases (in words)” value in series [5] (24 hour) is given as “exhibit BMP-7 fold increases”. The cell death result in series [6] (10 uM) is “*Ebastine”.

Take `CN(C)CCC(c1ccccc1)c1ccccn1` (centres unmarked) [Pheniramine]: in series [3] (10 μM), the “BMP-2 Fold Increase/Dose” value is reported as ~2/10 μM fold. The “BMP-2 fold increases (in words)” value in series [3] is on record as “exhibit BMP-2 fold increases”. In addition, in series [4], the “BMP-4 Fold Increase/Dose” value was “None”. The “BMP-7 Fold Increase/Dose” value in series [5] (24 hour, 2.5, 5 and 10 μM tested, no dose stated) was “None”.

Take `CCN(CC)CCCC(C)Nc1c2ccc(Cl)cc2nc2ccc(OC)cc12` (centres unmarked) [Quinacrine]: the “RT PCR Fold increase” value in series [1] (BIOMOL library (Table 2)) was determined as 52.9 fold. Also, the fold induction at 10 µM in series [2] (BIOMOL library (Table 2)) was 95. For the same compound, the “Fold change (BMP-2)” value in series [7] is reported as 722.00 fold. For the same compound, the cell death entry in series [6] (5 uM) and in series [6] (10 uM) was “*Quinacrine” throughout.

Turning to `CC[C@]1(O)C[C@H]2CN(CCc3c([nH]c4ccccc34)[C@@](C(=O)OC)(c3cc4c(cc3OC)N(C=O)[C@H]3[C@@](O)(C(=O)OC)[C@H](OC(C)=O)[C@]5(CC)C=CCN6CC[C@]43[C@@H]65)C2)C1` [Vincristine sulfate], the “RT PCR Fold increase” value in series [1] (setting [8]) came out at 10.8 fold. Further, the fold induction at 10 µM in series [2] (setting [8]) turned out to be 1.8. Also, in series [7], the “Fold change (BMP-2)” value turned out to be 57.00 fold.

Values taken from patent US9216181B2 (Southwest Research Institute, priority 2011, dated 2015).
